Results published in patent publication US20130274174A1, “THERAPEUTIC COMBINATION OF DAPTOMYCIN AND PROTEIN SYNTHESIS INHIBITOR ANTIBIOTIC, AND METHODS OF USE” (priority 2011, published 2013).
Values after ≈ are worked out from the molar mass of the structure shown. Read-outs that look alike come from different tables or passages of the source.

What was measured:
[1] = system: S. aureus and enterococci; details: Entenza et al. 2010; cited from earlier work
[2] = system: S. aureus MW2 (NRS123); test: microbe, parasite or virus in culture; assay type: cell-based, Staphylococcus aureus; details: Staphylococcus aureus
Experimental: S. aureus strains MW2 (NARSA collection clinical MRSA isolate, NRS123) and ATCC 33591 (MRSA strain from the American Type Culture Collection) were cultured on Mueller-Hinton II cation adjusted (MHA) medium in 90×90 mm square petri dishes. MHA containing ¼ of the MIC value of TR-700, TR-705, LZD, TIA, CLI, TET, or VAN, TMP/SMX throughout the plate and a continuous linear gradient of DAP across the plate was used to passage MW2. ATCC 33591 was passaged with ¼ of the MIC of a subset of these drugs (TR-700, TMP/SMX, and VAN). A DAP-only control passage group was included for both strains. DAP gradients were created by pouring two layers of media as previously described (Bryson, V., et al. 1952. Microbial selection. Science 116:45-51; Locke, J. B., et al., 2009. Antimicrob. Agents Chemother. 53:5265-5274). Following each passage the leading edge of growth (i.e., most resistant cells) was resuspended in phosphate buffered saline (PBS) to an absorbance of 0.30 OD600 and a 100 μl aliquot containing ˜3.0×10^7 CFU (colony-forming units) was spread on to the proceeding passage plate. The starting maximal DAP concentration was 2 μg/ml and was increased in two-fold increments when the leading edge of growth surpassed the half way point on the plate. A glycerol stock was made from the total cell population for each culture condition for each passage. Thirty serial passages were completed for each treatment group.

For Gentamicin, the “increase of MIC in parallel to the increase in the daptomycin MIC” value [1] is given as “two-fold” and the “prevention of the emergence of daptomycin resistance” value [1] is given as “unable to prevent the emergence of daptomycin resistance”.
Compound `CCC[C@@H]1C[C@@H](C(=O)N[C@@H]([C@H]2O[C@H](SC)[C@H](O)[C@@H](O)[C@H]2O)[C@H](C)Cl)N(C)C1` [CLI, clindamycin] has an MIC ([2]; NRS123, passage 0, NRS123 WT) of 0.125 µg/mL (≈ 0.294 µM), an MIC ([2]; NRS123, passage 5, selection group DAP) of 0.125 µg/mL (≈ 0.294 µM) and an MIC ([2]; NRS123, passage 5, selection group DAP + CLI) of 0.0625 µg/mL. It also gave an MIC ([2]; NRS123, passage 5, selection group DAP + LZD) of 0.0625 µg/mL, an MIC ([2]; NRS123, passage 5, selection group DAP + TET) of 0.125 µg/mL and an MIC ([2]; NRS123, passage 5, selection group DAP + TIA) of 0.125 µg/mL. For the same compound, the MIC ([2]; NRS123, passage 5, selection group DAP + TMP/SMX) was 0.125 µg/mL, the MIC ([2]; NRS123, passage 5, selection group DAP + TR-700) was 0.125 µg/mL and the MIC ([2]; NRS123, passage 5, selection group DAP + TR-705) was 0.0625 µg/mL. The MIC ([2]; NRS123, passage 5, selection group DAP + VAN) was 0.125 µg/mL, the MIC ([2]; NRS123, passage 10, selection group DAP) was 0.125 µg/mL (≈ 0.294 µM) and the MIC ([2]; NRS123, passage 10, selection group DAP + CLI) was 0.0625 µg/mL. It also gave an MIC ([2]; NRS123, passage 10, selection group DAP + LZD) of 0.0625 µg/mL, an MIC ([2]; NRS123, passage 10, selection group DAP + TET) of 0.0625 µg/mL and an MIC ([2]; NRS123, passage 10, selection group DAP + TIA) of 0.125 µg/mL. For the same compound, the MIC ([2]; NRS123, passage 10, selection group DAP + TMP/SMX) was 0.125 µg/mL, the MIC ([2]; NRS123, passage 10, selection group DAP + TR-700) was 0.125 µg/mL and the MIC ([2]; NRS123, passage 10, selection group DAP + TR-705) was 0.125 µg/mL. It also gave an MIC ([2]; NRS123, passage 10, selection group DAP + VAN) of 0.0625 µg/mL, an MIC ([2]; NRS123, passage 15, selection group DAP) of 0.125 µg/mL (≈ 0.294 µM) and an MIC ([2]; NRS123, passage 15, selection group DAP + CLI) of 0.0625 µg/mL. For the same compound, the MIC ([2]; NRS123, passage 15, selection group DAP + LZD) was 0.125 µg/mL, the MIC ([2]; NRS123, passage 15, selection group DAP + TET) was 0.0313 µg/mL and the MIC ([2]; NRS123, passage 15, selection group DAP + TIA) was 0.0625 µg/mL. The MIC ([2]; NRS123, passage 15, selection group DAP + TMP/SMX) was 0.125 µg/mL, the MIC ([2]; NRS123, passage 15, selection group DAP + TR-700) was 0.125 µg/mL and the MIC ([2]; NRS123, passage 15, selection group DAP + TR-705) was 0.0625 µg/mL. The MIC ([2]; NRS123, passage 15, selection group DAP + VAN) was 0.125 µg/mL, the MIC ([2]; NRS123, passage 20, selection group DAP) was 0.0625 µg/mL (≈ 0.147 µM) and the MIC ([2]; NRS123, passage 20, selection group DAP + CLI) was 0.0625 µg/mL. The MIC ([2]; NRS123, passage 20, selection group DAP + LZD) was 0.125 µg/mL, the MIC ([2]; NRS123, passage 20, selection group DAP + TET) was 0.0313 µg/mL and the MIC ([2]; NRS123, passage 20, selection group DAP + TIA) was 0.0625 µg/mL. For the same compound, the MIC ([2]; NRS123, passage 20, selection group DAP + TMP/SMX) was 0.125 µg/mL, the MIC ([2]; NRS123, passage 20, selection group DAP + TR-700) was 0.125 µg/mL and the MIC ([2]; NRS123, passage 20, selection group DAP + TR-705) was 0.0625 µg/mL. It also gave an MIC ([2]; NRS123, passage 20, selection group DAP + VAN) of 0.125 µg/mL, an MIC ([2]; NRS123, passage 25, selection group DAP) of 0.125 µg/mL (≈ 0.294 µM) and an MIC ([2]; NRS123, passage 25, selection group DAP + CLI) of 0.0625 µg/mL. For the same compound, the MIC ([2]; NRS123, passage 25, selection group DAP + LZD) was 0.0625 µg/mL, the MIC ([2]; NRS123, passage 25, selection group DAP + TET) was 0.0313 µg/mL and the MIC ([2]; NRS123, passage 25, selection group DAP + TIA) was 0.0625 µg/mL. The MIC ([2]; NRS123, passage 25, selection group DAP + TMP/SMX) was 0.125 µg/mL, the MIC ([2]; NRS123, passage 25, selection group DAP + TR-700) was 0.125 µg/mL and the MIC ([2]; NRS123, passage 25, selection group DAP + TR-705) was 0.0625 µg/mL. It also gave an MIC ([2]; NRS123, passage 25, selection group DAP + VAN) of 0.125 µg/mL, an MIC ([2]; NRS123, passage 30, selection group DAP) of 0.125 µg/mL (≈ 0.294 µM) and an MIC ([2]; NRS123, passage 30, selection group DAP + CLI) of 0.0625 µg/mL. For the same compound, the MIC ([2]; NRS123, passage 30, selection group DAP + LZD) was 0.0625 µg/mL, the MIC ([2]; NRS123, passage 30, selection group DAP + TET) was 0.0313 µg/mL and the MIC ([2]; NRS123, passage 30, selection group DAP + TIA) was 0.125 µg/mL. For the same compound, the MIC ([2]; NRS123, passage 30, selection group DAP + TMP/SMX) was 0.125 µg/mL, the MIC ([2]; NRS123, passage 30, selection group DAP + TR-700) was 0.125 µg/mL and the MIC ([2]; NRS123, passage 30, selection group DAP + TR-705) was 0.125 µg/mL. It also gave an MIC ([2]; NRS123, passage 30, selection group DAP + VAN) of 0.0625 µg/mL and an MIC ([2]; NRS123, read-out: DAP MIC by the end of the experiment (selection of DAP^ns strains), MW2, passaged with DAP alone or with co-selecting agent at ¼ MIC, CLSI breakpoint) greater than 1 µg/mL.
